Source: patent EP0986381B1, “USE OF DITERPENES LIKE HYPOESTOXIDES FOR THE MANUFACTURE OF A MEDICAMENT FOR IMMUNOSUPPRESSION, ANTICANCER AND ANTIVIRAL TREATMENT” (Immune Modulation, Inc., priority 1997, dated 1998)
pIC50: −log10 of the molar value.

Experiments:
[1] = test system: one-way MLR-generated human T-lymphocyte-mediated cytolysis; assay: Cytolysis by CTLs generated in one-way MLR, 51Cr-release assay; format: cell-based; settings: T-cell, 1.0 µg/mL JO-4 during 5-7 day one-way MLR, four hour 51Cr-release, read-out: inhibition of the lytic capability of cytotoxic T-cells
Source text: The "one-way MLR" was set up in tissue culture flasks with mononuclear cells from two different donors as in the "two-way MLR" described above. However, in "one-way MLR", one of the two mononuclear leukocyte populations was rendered incapable of proliferation by treatment with mitomycin C, an antimitotic drug, prior to culture. In this "one-way MLR", the treated cells served exclusively as stimulators and the untreated cells, still capable of proliferation, served as the responders. The responder cells, during a 5-7 day culture period, expressed the CD8+ phenotype but not the CD4+. These CD8+ cells served exclusively as cytolytic T lymphocytes (CTLs) which lyse target cells from the same individual as the original stimulator cell population. In transplantation, these MHC-restricted cytotoxic CD8+ T-cells lyse MHC disparate donor tissue targets, leading to graft rejection (Abbas, A.K., eds., 1994, 2nd ed., Cellular and Molecular Immunology, W.B. Saunders Co., USA; Imagawa, D.K., et al., in Aggarwal, B.B., et al., eds., 1995, Human Cytokines: Their role in Disease and Therapy, Blackwell Science, Inc., Cambridge, MA).
Mononuclear cells of one donor were first treated with mitomycin C (Sigma Chem. Co., St. Louis, MO) (50 µg/50 x 10^6 cells) in 15 mL tubes wrapped in aluminum foil and incubated in a 37°C water bath for 1 hr. […]

[2] = test system: HIV-1 isolate from a patient; assay: In vitro HIV-1 replication assay in PBMC, p24 antigen EIA; format: cell-based, Human Immunodeficiency Virus type 1; settings: Human immunodeficiency virus 1, 168 h, PHA-activated human PBMC, 7 days
Experimental: In Vitro HIV-1 Replication Assay: A standardized peripheral blood mononuclear cell culture assay for the determination of drug susceptibilities of clinical human HIV-1 isolates was utilized (Japour AJ et al. Antimicro Agents Chemother 1993; 37:1095-1101). Peripheral blood mononuclear cells (2 x 10^6 cells/ml) were stimulated with PHA (5 µg/ml) in complete culture medium at 37°C, in a 5% CO2-95% air-humidified incubator for 72 hours. The 3-day-old PHA-stimulated PBMC was sedimented at 400 g for 10 min at 20-24°C. Supernatant was removed and discarded. The cells were resuspended in complete culture medium supplemented with 3% IL-2. Cell viability was determined with 0.4% trypan blue. Viability was greater than 85%. Cell concentration was adjusted to 4x10^6/ml. Cells were dispensed in 50 µl volumes (2x10^5/well) into 96 well microtiter plates containing 50 µl complete culture medium. HIV-1 infected cultures were initiated with a patient's HIV-1 isolate (50 µl/well) at a multiplicity of infection (MOI) of 0.05 and 0.1 respectively. JO-4A was added to wells in 50 µl volumes at varying concentrations (0.0001 µM - 0.5 µM). The plates were incubated at 37°C and 5% CO2 in humidified chamber for 7 days. On day 4, half of the spent medium (100 µl) was discarded, and 50 µl of fresh complete medium and 50 µl of fresh JO-4A (varying concentrations as above) were added to wells containing spent JO-4A. […]

C=C1C(=O)C[C@H]2C[C@@H]3O[C@@]3(C)CC[C@@H]3O[C@@]3(C)C[C@@H](OC(C)=O)[C@H]1C2(C)C [JO-4, hypoestoxide]
inhibition at 1 µg/mL [1]: 82%

C=C1C(=O)CC2CC3OC3(C)CCC3OC3(C)CC(O)C1C2(C)C (centres unmarked) [JO-4A]
pIC50 [2]: 8.00 to 10.00
